Test results: the NIST ThermoML archive (doi:10.1021/acs.jced.9b00474)

Assays:
[1] = Molar enthalpy of transition or fusion; settings: Crystal 2; DSC
[2] = Crystal 2; visual observation
[3] = xn = mol fraction of the nth substance listed; settings: 100 kPa, Liquid, x2 = 0.334; for mass density: Vibrating tube method; for viscosity: Cone and plate viscometry

C[N+](C)(C)CCO.[Cl-] [choline chloride]
Settings	Molar enthalpy of transition or fusion [kcal/mol]	Triple point temperature [K]
[1]	1.75	–
[2]	–	351.62

NC(N)=O [urea] + C[N+](C)(C)CCO.[Cl-]
[3]
Settings	mass density [kg/m3]	viscosity [mPa·s]
293.15 K	1203	–
293.25 K	–	2110
299.45 K	–	1286
303.15 K	1197	–
305.85 K	–	725
312.15 K	–	432
313.15 K	1192	–
318.35 K	–	265
323.15 K	1186	–
324.55 K	–	170
330.95 K	–	116
333.15 K	1180	–
337.15 K	–	83
343.15 K	1175	–
343.35 K	–	61
349.55 K	–	46
353.15 K	1170	–
355.85 K	–	36
362.05 K	–	27
363.15 K	1164	–
368.25 K	–	21
